Data reported in patent US5283248A, “Amino substituted pyrimido[1,6-2]benzimidazoles” (priority 1989, dated 1994).

Assays:
DNA-gyrase = target: T1, DNA-gyrase (Escherichia coli, UniProt P0AES4+P0AES6); assay: DNA-gyrase inhibition, supercoiling method (relaxed pUC18 or pUC19 plasmid DNA as substrate); assay type: biochemical; settings: E. coli DNA-gyrase
T1 construct: made in house; host or cells: E. coli N4186 and E. coli MK47
Source text: The inhibitory action on the DNA-gyrase activity in bacteria can be determined, for example, by means of the supercoiling method described by R. Otter and N. R. Cozzarelli in Methods in Enzymology, Vol. 100, pp. 171-180 (1983). The DNA-gyrase used was isolated from E. coli N4186 and from the sub-unit B of E. coli MK47 (Mitsuchi et al., JBL 159, 9199-9201 (1984)). Relaxed pUC18 or pUC19 plasmid DNA was used as the substrate. The results determined in this test are compiled in the following Table, with the results being expressed as the MNC (maximum non-effective concentration) in μg/ml.

Toxicity, LD50 = settings: in vivo

T1 sequence (P0AES4 whole entry, one chain of several): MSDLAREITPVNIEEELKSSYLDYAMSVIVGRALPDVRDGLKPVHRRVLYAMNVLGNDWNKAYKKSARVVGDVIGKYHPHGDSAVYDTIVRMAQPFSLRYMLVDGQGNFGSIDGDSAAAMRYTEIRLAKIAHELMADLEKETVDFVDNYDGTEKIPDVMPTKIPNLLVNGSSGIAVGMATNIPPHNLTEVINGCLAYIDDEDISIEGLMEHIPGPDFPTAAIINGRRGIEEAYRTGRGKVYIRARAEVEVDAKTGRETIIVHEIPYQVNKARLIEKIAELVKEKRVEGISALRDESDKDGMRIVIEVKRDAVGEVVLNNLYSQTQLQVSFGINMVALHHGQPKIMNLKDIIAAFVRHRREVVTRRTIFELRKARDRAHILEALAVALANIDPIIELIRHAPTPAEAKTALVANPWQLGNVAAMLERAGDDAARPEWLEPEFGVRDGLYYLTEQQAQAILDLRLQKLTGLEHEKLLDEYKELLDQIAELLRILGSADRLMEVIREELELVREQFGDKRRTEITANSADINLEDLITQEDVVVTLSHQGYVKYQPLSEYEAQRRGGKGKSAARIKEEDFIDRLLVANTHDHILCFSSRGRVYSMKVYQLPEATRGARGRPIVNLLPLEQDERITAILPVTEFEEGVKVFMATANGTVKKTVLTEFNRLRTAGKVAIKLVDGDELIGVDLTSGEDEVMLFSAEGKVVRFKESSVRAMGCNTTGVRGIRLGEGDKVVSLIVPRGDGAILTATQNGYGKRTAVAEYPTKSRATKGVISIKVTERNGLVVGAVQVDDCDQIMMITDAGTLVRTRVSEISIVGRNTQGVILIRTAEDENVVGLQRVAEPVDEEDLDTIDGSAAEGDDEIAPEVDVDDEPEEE

SMILES | Activity MNC (maximum non-effective concentration) (DNA-gyrase) | LD50 (Toxicity, LD50; iv) | LD50 (Toxicity, LD50; po)
CCn1c2cc(N3CCN(C)CC3)c(F)cc2n2c(=O)[nH]c(=S)cc12 [Example 3] | 2 µg/mL | – | –
CCn1c2cc(N3CCNCC3)c(F)cc2n2c(=O)[nH]c(=O)cc12 [Example 8, 5-ethyl-8-fluoro-7-(1-piperazinyl)pyrimido[1,6-a]benzimidazole-1,3(2H,5H)-dione] | 1 µg/mL | – | –
Cl.O=c1cc2n(C3CC3)c3cc(N4CCNCC4)c(F)cc3n2c(=O)n1O [Example 4, 5-cyclopropyl-8-fluoro-2-hydroxy-7-(1-piperazinyl)-pyrimido[1,6-a]benzimidazole-1,3(2H,5H)-dione hydrochloride] | 2 µg/mL | 30 mg/kg | > 4000 mg/kg
O=C(O)C(F)(F)F.O=c1cc2n(C3CC3)c3cc(N4CCNCC4)c(F)cc3n2c(=O)[nH]1 [Example 2, 5-cyclopropyl-8-fluoro-7-(1-piperazinyl)-pyrimido[1,6-a]benzimidazole-1,3(2H,5H)-dione trifluoroacetate] | 0.45 µg/mL | 30 mg/kg | > 2000 mg/kg
CCn1c2cc(N3CCN(C)CC3)c(F)cc2n2c(=O)[nH]c(=O)cc12 [Example 1, 5-ethyl-8-fluoro-7-(4-methyl-1-piperazinyl)pyrimido[1,6-a]benzimidazole-1,3(2H,5H)-dione] | 2 µg/mL | – | –
